These results are taken from ChEMBL document CHEMBL4507327 (2021).

The target in test [1] is Acetylcholine receptor subunit alpha (Homo sapiens) (UniProt P02708). Put plainly: Inhibition of Nicotinic Acetylcholine D1, Bungarotoxin at 10 µM in the Eurofins-Panlabs radioligand binding assay (Eurofins_assay_258700). The conditions noted are these: Compound concentration 10.0 uM.
Test [2] has as its target 5-hydroxytryptamine receptor 1B (Homo sapiens) (UniProt P28222). The note with it: Compound concentration 10.0 uM.
The target in test [3] is 5-hydroxytryptamine receptor 5A (Homo sapiens) (UniProt P47898). The note with it: Compound concentration 10.0 uM.
The target of test [4] is D(2) dopamine receptor (Homo sapiens) (UniProt P14416). The conditions noted are these: Compound concentration 10.0 uM.
Test [5] deals with D(3) dopamine receptor (Homo sapiens) (UniProt P35462). The conditions noted are these: Compound concentration 10.0 uM.
The target in test [6] is Sodium-dependent serotonin transporter (Homo sapiens) (UniProt P31645). The note with it: Compound concentration 10.0 uM.
The target of test [7] is Mu-type opioid receptor (Homo sapiens) (UniProt P35372). The conditions noted are these: Compound concentration 10.0 uM.
Test [8] addresses Kappa-type opioid receptor (Homo sapiens) (UniProt P41145). The conditions noted are these: Compound concentration 10.0 uM.
Test [9] concerns the target GABA-A receptor; anion channel (Rattus norvegicus) (UniProt O09028+P15431+P18506+P18508+P19969+P20236+P23574+P23576+P28471+P28473+P30191+P62813+P63079+P63138+Q91ZM7+Q9ES14). The note with it: Compound concentration 10.0 uM.
For test [10], the target named is Alpha-2A adrenergic receptor (Homo sapiens) (UniProt P08913). The conditions noted are these: Compound concentration 10.0 uM.
Test [11] addresses Muscarinic acetylcholine receptor M5 (Homo sapiens) (UniProt P08912). The conditions noted are these: Compound concentration 10.0 uM.
The target of test [12] is Alpha-1D adrenergic receptor (Homo sapiens) (UniProt P25100). The conditions noted are these: Compound concentration 10.0 uM.
The target in test [13] is RAC-alpha serine/threonine-protein kinase (Homo sapiens, UniProt P31749). Put plainly: Akt1 [PKBalpha(AKT1PHFB)] Takeda global kinase panel.
In test [14] the target is Calcium/calmodulin-dependent protein kinase type II subunit alpha (Homo sapiens, UniProt Q9UQM7). Put plainly: CaMK2alpha(CA2ACGT1) Takeda global kinase panel.
Test [15] has as its target Calcium/calmodulin-dependent protein kinase type II subunit delta (Homo sapiens, UniProt Q13557). Put plainly: CaMK2delta(CA2DCGT1) Takeda global kinase panel.
The target of test [16] is Calcium/calmodulin-dependent protein kinase type II subunit gamma (Homo sapiens, UniProt Q13555). The test can be described thus: CaMK2gamma(CA2GLGT5) Takeda global kinase panel.
Test [17] deals with Calcium/calmodulin-dependent protein kinase kinase 2 (Homo sapiens, UniProt Q96RR4). The test can be described thus: CAMKK2(CAK2LGT5) Takeda global kinase panel.
For test [18], the target named is Interleukin-1 receptor-associated kinase 1 (Homo sapiens, UniProt P51617). Put plainly: IRAK1(IRK1LGF1) Takeda global kinase panel.
The target of test [19] is Mitogen-activated protein kinase kinase kinase 2 (Homo sapiens, UniProt Q9Y2U5). The test can be described thus: MEKK2 [MAP3K2(M3K2LGF1)] Takeda global kinase panel.
In test [20] the target is Macrophage-stimulating protein receptor (Homo sapiens, UniProt Q04912). Put plainly: Ron(MST1MGY1) Takeda global kinase panel.
In test [21] the target is cGMP-dependent protein kinase 1 (Homo sapiens, UniProt Q13976). Put plainly: PKG1(PRG1LFP1) Takeda global kinase panel.
Test [22] concerns the target Serine/threonine-protein kinase 38-like (Homo sapiens, UniProt Q9Y2H1). Put plainly: NDR2(S38LLGF1) Takeda global kinase panel.
Test [23] deals with Tribbles homolog 1 (Homo sapiens, UniProt Q96RU8). The test can be described thus: Trb1(TRI1PARP) Takeda global kinase panel.

D(3) dopamine receptor (Homo sapiens), sequence (P35462 whole entry): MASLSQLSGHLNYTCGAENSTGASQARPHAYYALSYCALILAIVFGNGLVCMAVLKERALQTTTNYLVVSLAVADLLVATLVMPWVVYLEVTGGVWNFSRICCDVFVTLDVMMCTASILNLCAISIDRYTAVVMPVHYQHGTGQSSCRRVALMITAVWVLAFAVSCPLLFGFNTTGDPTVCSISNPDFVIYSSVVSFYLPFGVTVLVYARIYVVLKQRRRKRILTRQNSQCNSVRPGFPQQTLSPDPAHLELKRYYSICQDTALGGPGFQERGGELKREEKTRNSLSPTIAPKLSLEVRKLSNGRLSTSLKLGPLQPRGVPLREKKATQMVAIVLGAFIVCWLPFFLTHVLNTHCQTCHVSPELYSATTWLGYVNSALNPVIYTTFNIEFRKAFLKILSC
Alpha-1D adrenergic receptor (Homo sapiens), sequence (P25100 whole entry): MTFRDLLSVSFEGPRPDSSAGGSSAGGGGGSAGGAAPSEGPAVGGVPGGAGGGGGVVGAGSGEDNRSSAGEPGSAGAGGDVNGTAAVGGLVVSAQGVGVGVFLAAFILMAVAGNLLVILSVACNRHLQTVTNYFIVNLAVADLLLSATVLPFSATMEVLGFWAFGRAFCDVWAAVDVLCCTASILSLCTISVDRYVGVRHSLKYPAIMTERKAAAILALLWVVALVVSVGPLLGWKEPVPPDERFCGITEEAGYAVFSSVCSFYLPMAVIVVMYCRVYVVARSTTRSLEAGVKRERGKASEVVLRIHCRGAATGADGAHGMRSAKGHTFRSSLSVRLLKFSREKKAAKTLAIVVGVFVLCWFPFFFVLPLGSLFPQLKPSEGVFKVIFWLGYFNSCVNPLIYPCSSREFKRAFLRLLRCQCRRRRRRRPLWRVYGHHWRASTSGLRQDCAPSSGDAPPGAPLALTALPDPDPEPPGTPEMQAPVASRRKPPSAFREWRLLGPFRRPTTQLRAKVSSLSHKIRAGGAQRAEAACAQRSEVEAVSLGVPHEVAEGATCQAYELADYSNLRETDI
RAC-alpha serine/threonine-protein kinase, sequence (P31749 whole entry): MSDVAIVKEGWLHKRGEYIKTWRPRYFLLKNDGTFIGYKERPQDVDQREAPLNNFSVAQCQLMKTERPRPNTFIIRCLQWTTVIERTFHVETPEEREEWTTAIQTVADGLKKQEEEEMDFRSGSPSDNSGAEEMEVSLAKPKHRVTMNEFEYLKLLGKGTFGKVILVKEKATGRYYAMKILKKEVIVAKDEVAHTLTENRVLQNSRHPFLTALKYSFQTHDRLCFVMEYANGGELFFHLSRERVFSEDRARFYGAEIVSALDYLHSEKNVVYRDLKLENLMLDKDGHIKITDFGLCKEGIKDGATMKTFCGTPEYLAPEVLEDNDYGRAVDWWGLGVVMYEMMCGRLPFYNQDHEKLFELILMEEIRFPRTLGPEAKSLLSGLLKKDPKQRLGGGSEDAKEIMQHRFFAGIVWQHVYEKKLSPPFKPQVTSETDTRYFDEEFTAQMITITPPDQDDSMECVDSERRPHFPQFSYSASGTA
Acetylcholine receptor subunit alpha (Homo sapiens), sequence (P02708 whole entry): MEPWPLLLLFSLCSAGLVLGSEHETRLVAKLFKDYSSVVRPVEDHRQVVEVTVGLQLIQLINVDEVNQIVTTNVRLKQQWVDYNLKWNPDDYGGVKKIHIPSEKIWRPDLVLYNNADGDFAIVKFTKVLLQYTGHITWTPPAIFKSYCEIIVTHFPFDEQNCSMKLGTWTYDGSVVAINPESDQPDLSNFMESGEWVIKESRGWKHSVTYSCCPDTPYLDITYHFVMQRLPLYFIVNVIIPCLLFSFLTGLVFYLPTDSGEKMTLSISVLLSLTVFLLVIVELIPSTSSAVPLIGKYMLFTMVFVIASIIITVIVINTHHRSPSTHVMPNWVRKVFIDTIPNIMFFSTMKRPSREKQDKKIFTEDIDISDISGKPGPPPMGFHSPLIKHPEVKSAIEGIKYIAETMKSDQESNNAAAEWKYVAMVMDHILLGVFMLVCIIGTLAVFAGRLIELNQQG
Serine/threonine-protein kinase 38-like, sequence (Q9Y2H1 whole entry): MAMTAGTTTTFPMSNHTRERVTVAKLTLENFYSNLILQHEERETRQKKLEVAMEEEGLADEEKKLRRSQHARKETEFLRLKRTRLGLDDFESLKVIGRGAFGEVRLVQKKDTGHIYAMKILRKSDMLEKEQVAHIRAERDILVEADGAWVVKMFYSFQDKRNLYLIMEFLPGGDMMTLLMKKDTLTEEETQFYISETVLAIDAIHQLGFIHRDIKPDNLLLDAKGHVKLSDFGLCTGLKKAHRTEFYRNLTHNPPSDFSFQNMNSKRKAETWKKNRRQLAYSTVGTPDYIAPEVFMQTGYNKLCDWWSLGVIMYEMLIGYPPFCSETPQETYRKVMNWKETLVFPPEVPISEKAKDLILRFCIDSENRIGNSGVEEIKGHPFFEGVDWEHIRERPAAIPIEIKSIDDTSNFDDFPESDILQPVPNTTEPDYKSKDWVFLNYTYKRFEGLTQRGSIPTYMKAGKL
cGMP-dependent protein kinase 1, sequence (Q13976 whole entry): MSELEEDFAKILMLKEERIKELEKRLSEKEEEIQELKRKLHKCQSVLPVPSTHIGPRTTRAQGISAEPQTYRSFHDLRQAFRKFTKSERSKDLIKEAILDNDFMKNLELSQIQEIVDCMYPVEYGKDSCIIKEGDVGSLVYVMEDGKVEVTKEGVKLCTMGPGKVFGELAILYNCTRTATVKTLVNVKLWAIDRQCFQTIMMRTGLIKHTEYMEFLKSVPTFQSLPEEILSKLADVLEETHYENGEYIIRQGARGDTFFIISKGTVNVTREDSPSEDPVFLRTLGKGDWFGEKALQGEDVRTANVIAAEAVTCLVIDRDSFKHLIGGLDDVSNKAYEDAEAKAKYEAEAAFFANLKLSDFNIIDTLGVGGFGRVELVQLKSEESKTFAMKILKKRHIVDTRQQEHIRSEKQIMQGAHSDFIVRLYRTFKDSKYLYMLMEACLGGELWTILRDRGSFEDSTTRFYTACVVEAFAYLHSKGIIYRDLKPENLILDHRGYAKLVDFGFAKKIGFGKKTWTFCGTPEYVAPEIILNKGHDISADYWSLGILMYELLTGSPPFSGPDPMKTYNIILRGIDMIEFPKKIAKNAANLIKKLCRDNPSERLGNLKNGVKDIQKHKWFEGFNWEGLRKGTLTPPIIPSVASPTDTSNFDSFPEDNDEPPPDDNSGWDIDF
Macrophage-stimulating protein receptor, sequence (Q04912 25-304 limits assumed): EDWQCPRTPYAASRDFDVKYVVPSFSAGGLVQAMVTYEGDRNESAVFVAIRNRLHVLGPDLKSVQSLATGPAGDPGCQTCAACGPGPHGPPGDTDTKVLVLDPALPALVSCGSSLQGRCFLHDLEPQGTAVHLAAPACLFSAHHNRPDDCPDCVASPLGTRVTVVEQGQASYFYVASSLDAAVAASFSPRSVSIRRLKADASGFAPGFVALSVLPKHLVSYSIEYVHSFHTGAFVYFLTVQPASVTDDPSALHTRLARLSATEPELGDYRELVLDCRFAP
Macrophage-stimulating protein receptor, sequence (Q04912 310-1400 limits assumed): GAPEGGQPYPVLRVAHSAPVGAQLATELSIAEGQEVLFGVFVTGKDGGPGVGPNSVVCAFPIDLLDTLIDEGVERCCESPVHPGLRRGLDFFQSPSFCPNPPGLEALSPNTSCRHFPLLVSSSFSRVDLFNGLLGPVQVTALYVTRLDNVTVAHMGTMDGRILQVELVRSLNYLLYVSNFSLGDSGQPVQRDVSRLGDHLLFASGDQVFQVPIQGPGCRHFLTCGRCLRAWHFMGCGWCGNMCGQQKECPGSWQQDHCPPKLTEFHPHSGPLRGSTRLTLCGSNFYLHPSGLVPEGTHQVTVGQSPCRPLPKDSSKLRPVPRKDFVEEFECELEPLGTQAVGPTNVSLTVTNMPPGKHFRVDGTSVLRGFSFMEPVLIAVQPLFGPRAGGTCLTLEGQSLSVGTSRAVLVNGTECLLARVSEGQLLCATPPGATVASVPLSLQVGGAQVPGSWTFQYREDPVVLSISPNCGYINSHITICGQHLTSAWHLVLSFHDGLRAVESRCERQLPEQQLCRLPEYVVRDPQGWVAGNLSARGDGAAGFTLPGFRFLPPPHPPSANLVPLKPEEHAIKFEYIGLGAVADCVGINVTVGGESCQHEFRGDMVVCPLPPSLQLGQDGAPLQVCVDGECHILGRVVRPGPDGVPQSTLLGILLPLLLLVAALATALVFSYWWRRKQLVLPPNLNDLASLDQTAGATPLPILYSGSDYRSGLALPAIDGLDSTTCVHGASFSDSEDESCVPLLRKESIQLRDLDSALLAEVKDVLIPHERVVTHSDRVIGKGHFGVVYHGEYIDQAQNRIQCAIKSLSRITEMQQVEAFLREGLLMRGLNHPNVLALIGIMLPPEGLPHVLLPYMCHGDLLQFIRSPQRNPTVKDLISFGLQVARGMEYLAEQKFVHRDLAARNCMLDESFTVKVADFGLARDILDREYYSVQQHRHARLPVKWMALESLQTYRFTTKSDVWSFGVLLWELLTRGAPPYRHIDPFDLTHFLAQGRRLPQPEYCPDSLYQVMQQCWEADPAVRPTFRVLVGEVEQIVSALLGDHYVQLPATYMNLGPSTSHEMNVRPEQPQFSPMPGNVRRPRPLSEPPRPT
Muscarinic acetylcholine receptor M5 (Homo sapiens), sequence (P08912 whole entry): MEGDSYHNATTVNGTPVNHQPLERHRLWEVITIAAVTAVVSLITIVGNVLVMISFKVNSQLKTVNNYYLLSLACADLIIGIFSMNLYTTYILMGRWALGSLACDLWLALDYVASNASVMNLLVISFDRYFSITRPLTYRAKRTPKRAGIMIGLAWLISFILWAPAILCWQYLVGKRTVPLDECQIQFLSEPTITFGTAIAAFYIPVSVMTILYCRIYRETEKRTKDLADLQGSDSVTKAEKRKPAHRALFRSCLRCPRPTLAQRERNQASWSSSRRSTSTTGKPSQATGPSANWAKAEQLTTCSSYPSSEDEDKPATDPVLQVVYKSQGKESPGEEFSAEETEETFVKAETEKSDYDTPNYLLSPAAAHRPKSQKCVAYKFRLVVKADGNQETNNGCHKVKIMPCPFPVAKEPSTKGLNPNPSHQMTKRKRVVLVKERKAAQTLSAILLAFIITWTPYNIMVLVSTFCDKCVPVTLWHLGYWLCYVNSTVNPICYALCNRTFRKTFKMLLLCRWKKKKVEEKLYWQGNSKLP

A word on the inhibition: it is the drop in the measured response relative to a control, in per cent. For `CN1C(=O)[C@@H](N2CCc3cn(Cc4ccccc4)nc3C2=O)COc2ccccc21` [TP-030-1], the inhibition in test [1] is -8%; in test [2], 0.99%; in test [3], 21.1%; in test [4], -5.46%; in [5], -4.81%; in test [6], 5.99%. Also, the inhibition in [7] is 10.6%; in test [8] it was 14.7%; in test [9] it was 10.5%; in test [10], 19.1%; in [11] it was 6.63%; in test [12], -0.3%.
What is called IC50 is the concentration that gives 50% inhibition. Take `CN1C(=O)[C@@H](N2CCc3cn(CC4CCS(=O)(=O)CC4)nc3C2=O)COc2ccccc21` [TP-030n]: the concentration for half-maximal inhibition (IC50) in test [13], in test [14], in test [15], in [16], in [17] and in test [18] was 1000 nM in each case. The half-maximal inhibitory concentration (IC50) in test [19], in test [20], in test [21], in [22] and in test [23] was 1000 nM in each case.
